The values below are quoted from earlier work in patent US20250144122A1, “Scent-Changing Ointment & Method of Making The Same” (priority 2023, published 2025).

The conditions of series [1]: in vivo.
The conditions of series [2]: topical application, 3.5% gel.

`CC(C)[C@@H]1CC[C@@H](C)C[C@H]1O` [(l)-menthol]: in series [1], the “analgesic effect (pain threshold)” value is on record as “able to increase pain threshold”. Turning to `CC1CC[C@H](C(C)C)[C@@H](O)C1` (stereo partly shown) [(d)-menthol], the “analgesic effect (pain threshold)” value in series [1] is reported as “completely devoid of any analgesic effect”. As to `CC1CCC(C(C)C)C(O)C1` (stereo not shown) [menthol, Menthol], the “blood flow remains reduced” value in series [2] (at 10 minutes after application) is on record as 20%. Further, the reduces blood flow in series [2] (within 60 seconds of application) is given as 35%.
